Columns and labels:
[1] = tested on: human articular chondrocytes; experiment: Proteoglycan synthesis by human articular chondrocytes (35S-sulfate incorporation); type: cell-based; conditions: PTH(1-34) 10^−8 mol/L, cultured for 13 days
Procedure: After purchase of cryopreserved human articular chondrocytes (Lot 2867, Cell Applications Inc.), the cells were thawed in a 37° C. water bath, 15 mL of Basal Medium supplemented with 10% Growth Supplement (Growth Medium, Cell Applications Inc.) was placed in a T75 culture flask (CORNING, Corning Japan K. K.) to culture the cells, and exchanged the next day with 15 mL of Growth Medium; and the cells were cultured for three days. Growth Medium was then removed, and HBSS (Cell Applications Inc.) was used to wash the chondrocyte layer. With addition of 1 mL of trypsin/EDTA solution (Cell Applications Inc.), this was left to stand at room temperature for approximately five minutes, and chondrocytes were detached from the flask. With 10 mL of Neutralization solution (Cell Applications Inc.) added, Bulker-Turk hemocytometer was used to determine the cell count, and the cells were then transferred to a 15-mL test tube for centrifugation (1,200 rpm for five minutes, Tomy Seiko Co., Ltd.) to produce a chondrocyte pellet. The supernatant was discarded, and the cells were placed in a 1.2% sodium alginate solution (25 mmol/L HEPES/150 mmol/L sodium chloride solution, pH7.0) at 2×10^6 cells/mL. This was drawn into a 1-mL syringe (Terumo Corporation) equipped with a 22G injection needle, five drops were added to each well of a 24-well plate (Corning Japan K.K.) containing 2 mL of 102 mmol/L aqueous CaCl2 solution, and this was left to stand for five minutes to form beads. Subsequently, this was washed three times with a 150 mmol/L sodium chloride solution and incubated for one day in Growth Medium, and the medium was exchanged with Basal Medium supplemented with 1% Growth supplement (Cell Applications Inc.). In this procedure, the following factors were added to the medium, and the cells were cultured for 13 days with three times of medium exchange performed per week.
On day 12 of culturing, ^35S-labeled sulfuric acid (PerkinElmer Japan Co., Ltd.) was added at 370 kBq/well, and the medium was collected 24 hours later into a test tube and stored at 4° C. To the alginate gel, a 55 mmol/L sodium citrate solution (Nacalai Tesque, Inc.; 1 mL/well) was added, and this was incubated at 37° C. for ten minutes for solation. This was collected into a microtube (Eppendorf AG) and then centrifuged (1,200 rpm, five minutes) to produce a chondrocyte pellet. […] The glass filter was transferred to a liquid scintillation counter vial, 5 mL of scintillator (Hionic-Fluor, PerkinElmer Japan Co., Ltd.) was added and radioactivity was measured on a liquid scintillation counter (TRI-CARB, PerkinElmer Japan Co., Ltd.).
The remaining 0.1 mL of the digested solution was used for DNA quantification. […]

ovariectomized rats = experiment: Bone mineral density after six weeks of repeated administration to ovariectomized rats; type: in vivo, rat; conditions: once a day for six weeks, hPTH(1-34) 0.9 nmol/kg subcutaneous
Procedure: Female Crl:CD(SD) rats obtained from Charles River Japan, Inc. were acclimated for one week or longer under standard laboratory conditions of 20° C. to 26° C. and 35% to 75% humidity, and then used in experiments. The rats had free access to tap water and a standard rodent diet (CE-2) (Clea Japan Inc.) containing 1.1% calcium, 1.0% phosphoric acid, and 250 IU/100 g vitamin D3.
Twelve-week old rats were subjected to removal of both ovaries by surgery (OVX) or to sham surgery (Sham). After the body weight was determined in the fourth week after surgery, the rats were divided into groups so that the average body weight of each group of six rats would be even. From the subsequent day after group division, each rat was subjected to repeated administration once a day for six weeks. The solvent for oral administration (vehicle) and the solvent for subcutaneous administration (PC buffer) were respectively administered orally and subcutaneously to rats of the Sham-Control group. Vehicle and PC buffer were orally and subcutaneously administered to rats of the OVX-Control group, respectively. To rats of OVX-Compound 7, the above-mentioned Compound 7 dissolved in the vehicle was orally administered at a dose of 30 mg/kg, and PC buffer was administered subcutaneously. To rats of the OVX-hPTH(1-34) group, the vehicle was orally administered, and hPTH(1-34) dissolved in PC buffer was subcutaneously administered at a dose of 0.9 nmol/kg.
The level of AUC (area under the curve for blood concentration vs. time) was the same as when 20 μg of Forteo®, a therapeutic agent clinically used for osteoporosis, is administered to humans when the administration dose for rats was set to 0.9 nmol/kg. The administration doses were 5 mL/kg for oral administration and 1 mL/kg for subcutaneous administration in all groups. The vehicle used was a composition prepared from 10% dimethyl sulfoxide (Wako Pure Chemical Industries, Ltd.), 10% Kolliphor EL (Sigma-Aldrich Japan), and 10% hydroxypropyl-β-cyclodextrin (Nihon Shokuhin Kako Co., Ltd), whose pH was adjusted to 10 using glycine (Wako Pure Chemical Industries, Ltd.) and sodium hydroxide (Wako Pure Chemical Industries, Ltd.). The PC buffer used was a composition prepared from 25 mmol/L phosphate-citrate buffer, 100 mmol/L NaCl, and 0.05% Tween80, adjusted to pH 5.0. […] The bone mineral densities of the lumbar spine and femur were determined using a dual X-ray bone mineral scanner (DCS-600EX, Aloka). The lumbar spine bone mineral density was determined by measuring the second to fourth lumbar vertebrae; and the femur bone mineral density was determined by vertically dividing the femur into ten parts, and measuring the three parts at the distal end of the knees. […]

[2] = tested on: rabbit articular chondrocytes; experiment: Suppression of terminal differentiation of rabbit articular chondrocytes (alkaline phosphatase and alizarin red staining); type: cell-based; conditions: BMP-2 100 ng/mL, Compound 7 10^−7 to 10^−5 mol/L, PTH(1-34) 10^−10 to 10^−7 mol/L
Procedure: NZW rabbits (4-week old, Oriental Yeast Co., Ltd.) were euthanized, and then the articular cartilage of the lower leg bone was collected, and transferred to a 50-mL test tube (Nippon Becton Dickinson Company). PBS (Nacalai Tesque, Inc.) containing 1% trypsin (Wako Pure Chemical Industries, Ltd.) was added to this, and the soft tissue was digested at 37° C. for one hour. This was followed by centrifugation at 1,200 rpm for five minutes, then supernatant was removed and PBS(−) was added to suspend the cartilage tissue. This was centrifuged at 1,200 rpm for five minutes, followed by removal of the supernatant, and washed three times by suspending in PBS(−). This was centrifuged at 1,200 rpm for five minutes, and then the cell pellet was digested by treatment with DMEM (Life Technologies Japan, Ltd.) containing 0.2% Type II collagenase (CLS-2, Worthington Biochemical Corp.) at 37° C. for three hours. Fetal bovine serum (Life Technologies Japan, Ltd.) was added at 10% v/v to stop the reaction, and this was vigorously pipetted using a 10-mL pipette (Nippon Becton Dickinson Company) to isolate the chondrocytes. This was centrifuged at 1,200 rpm for five minutes, followed by removal of the supernatant, and washed three times by suspending in 10% FCS-containing DMEM, and the chondrocytes were seeded at 1×10^4 cells/well on an I-type collagen-coated 96-well culture plate (AGC TECHNO GLASS CO., LTD.). Medium exchange was performed three times a week; and after the cells reached confluency, they were cultured in DMEM containing 100 μg/mL L-ascorbic acid phosphate magnesium salt n-hydrate (Wako Pure Chemical Industries, Ltd.), 10 mmol/L β-glycerophosphate pentahydrate (Wako Pure Chemical Industries, Ltd.) and 10% FCS. The following conditions were used to culture the cells, and alkaline phosphatase staining (cultured for 14 days) and alizarin red staining (cultured for 21 days) were performed to evaluate terminal differentiation of chondrocytes.
Alkaline phosphatase staining was performed by discarding the medium, then washing the chondrocytes once with 200 mmol/L Tris-HCl pH8.2 buffer, staining the cells according to the protocol supplied with the alkaline phosphatase staining kit (Vector Red Alkaline Phosphatase Substrate Kit I, Vector Laboratories, Inc.), and taking photographs with an inverted microscope (Nikon Corporation) (4× objective).
Alizarin red staining was performed by discarding the medium, then washing the chondrocytes twice with PBS, fixing the cells using 100% ethanol (Wako Pure Chemical Industries Ltd.) for 15 minutes, discarding the ethanol, and then staining with 1% alizarin red S (Wako Pure Chemical Industries Ltd.) for 15 minutes, followed by washing with distilled water; and photographs were taken with an inverted microscope.

Substance: hPTH(1-34): Human PTH(1-34) peptide purchased from Peptide Institute, Inc.; positive control [reference compound]
- radioactivity (proteoglycan synthesis, cpm/μg DNA) relative to the vehicle control [1]: 6 fold
- percentage of increase in femur bone mineral density with respect to the OVX-Control group (ovariectomized rats; Compound 7 30 mg/kg oral): 8%
- percentage of increase in lumbar spine bone mineral density with respect to the OVX-Control group (ovariectomized rats): 12%
- alkaline phosphatase activity (alkaline phosphatase staining) ([2]; cultured for 14 days): suppressed alkaline phosphatase activity in a concentration-dependent manner
- alizarin red staining property (calcification) ([2]; cultured for 21 days): suppressed the alizarin staining property in a concentration-dependent manner
